Laboratory results as given in patent US20230346775A1, “CANCER TREATMENT WITH TLR AGONIST” (BIRDIE BIOPHARMACEUTICALS, INC., priority 2020, published 2023).

Tests used:
Format in all cases: in vivo, human
[1] = Phase 1 safety, drug-related adverse events, Compound A monotherapy
Description: Toxicities and adverse events are sometimes graded according to a 5-point scale. A grade 1 or mild toxicity is asymptomatic or induces only mild symptoms; may be characterized by clinical or diagnostic observations only; and intervention is not indicated. A grade 2 or moderate toxicity may impair activities of daily living (such as preparing meals, shopping, managing money, using the telephone, etc.) but only minimal, local, or non-invasive interventions are indicated. Grade 3 toxicities are medically significant but not immediately life-threatening; hospitalization or prolongation of hospitalization is indicated; activities of daily living related to self-care (such as bathing, dressing and undressing, feeding oneself, using the toilet, taking medications, and not being bedridden) may be impaired. Grade 4 toxicities are life-threatening and urgent intervention is indicated. Grade 5 toxicity produces an adverse event-related death.
(§1) A treatment cycle is 21 days with 3 weekly infusions on days 1, 8, and 15.
Most common drug-related AE's were associated with immune activation.

advanced solid cancers [2] = assay: Clinical benefit (RECIST 1.1) versus AUC/Cmax, Compound A in combination with pembrolizumab; details: combination with pembrolizumab
Description: (§2) Clinical benefit was defined as radiographic complete response, partial response or stable disease >18 weeks based on Response Evaluation Criteria in Solid Tumors (RECIST) version 1.1.

[3] = as above; details: human, combination with anti-PD-1 mAb (pembrolizumab)
Description: as §2

IFN-γ = assay: Plasma IFN-γ induction from baseline (MSD cytokine assay); details: monotherapy, data not shown
Protocol: Pharmacodynamic analysis of Compound A included cytokine quantification and whole-blood RNA transcriptional profiling.
Collected plasma samples were quantified for cytokine biomarkers implicated in inflammatory responses, immune system regulation, and other biological processes. Assays for cytokine quantification were performed by Frontage Laboratories, Inc. utilizing Meso Scale Discovery (MSD) V-PLEX and U-PLEX plates pre-coated with capture antibodies for IL-5, IL-17A, IFN-γ, IL-2, IL-6, IL-8, IL-10, IL-12p70, TNF-α, IFN-α, IFN-β, and IP-10. Plasma samples were added directly to the plate to allow the analytes in the samples to bind to the capture antibodies. Electrochemiluminiscent label (MSD SOLFO-TAG™)-conjugated detection antibodies were then added to visualize the plates by a MSD plate reader. The luminescence intensity was measured to quantify the amount of captured analytes (or cytokine levels) in each sample.
Plasma samples were collected at Cycle 1, Cycle 3, and Cycle 6. Of the cytokines quantified, IP-10, IFN-γ, IL-6, IL-8, IL-10, and TNF-α had detectable levels. […] The greater peak cytokine level from either Cycle 1 Days 1 or 8 were selected for the analysis to be inclusive of all subjects.

[4] = Phase 1 pharmacokinetics: Compound A free base in plasma after intravenous infusion
Description: as §1
The Mosteller Formula was used: BSA=√height (cm)×weight (kg)/3600.

IP-10 = assay: Plasma IP-10 induction from baseline (MSD cytokine assay); details: for mean IP-10 induction level from baseline: 16 patients, Cycle 1
Protocol: (§3) Pharmacodynamic analysis of Compound A included cytokine quantification and whole-blood RNA transcriptional profiling. Collected plasma samples were quantified for cytokine biomarkers implicated in inflammatory responses, immune system regulation, and other biological processes. Assays for cytokine quantification were performed by Frontage Laboratories, Inc. utilizing Meso Scale Discovery (MSD) V-PLEX and U-PLEX plates pre-coated with capture antibodies for IL-5, IL-17A, IFN-γ, IL-2, IL-6, IL-8, IL-10, IL-12p70, TNF-α, IFN-α, IFN-β, and IP-10. Plasma samples were added directly to the plate to allow the analytes in the samples to bind to the capture antibodies. Electrochemiluminiscent label (MSD SOLFO-TAG™)-conjugated detection antibodies were then added to visualize the plates by a MSD plate reader. The luminescence intensity was measured to quantify the amount of captured analytes (or cytokine levels) in each sample. […] Plasma samples were collected at Cycle 1, Cycle 3, and Cycle 6. Of the cytokines quantified, IP-10, IFN-γ, IL-6, IL-8, IL-10, and TNF-α had detectable levels. […] The greater peak cytokine level from either Cycle 1 Days 1 or 8 were selected for the analysis to be inclusive of all subjects. […] Response was defined by best overall response—immune-related partial response (irPR), immune-related stable disease (irSD) with study duration over or under 18 weeks, and unconfirmed immune-related progressive disease (uirPD). Clinical benefit was defined as either partial response (irPR) or irSD >18 weeks. […] For example, patient A dosed with dose level 2 with slower metabolism may have higher AUC and/or Cmax than patient B who was dosed with dose level 3, as a result patient A may produce higher level of IP-10 induction from baseline.

[5] = as above; details: human, plasma, intravenous; read-out: minimum Cmax required to induce enough IP-10 that results in clinical benefit
Protocol: as §3

[6] = test system: unresectable or metastatic solid tumors; assay: Efficacy of Compound A salt monotherapy, best response by irRECIST; details: for patients with clinical benefit (irPR or irSD>18 weeks): 16 patients
Protocol: as §1
Response was defined by best overall response—immune-related partial response (irPR), immune-related stable disease (irSD) with study duration over or under 18 weeks, and unconfirmed immune-related progressive disease (uirPD). Clinical benefit was defined as either partial response (irPR) or irSD >18 weeks. IP-10 cytokine induction levels of 32 patients evaluable for efficacy, were analyzed with respect to dosage in Cycle 1.

advanced solid cancers [7] = assay: Clinical benefit (RECIST 1.1) versus AUC/Cmax, Compound A monotherapy
Description: as §2

[8] = as above; details: human, plasma, intravenous, Cmax of Compound A free base associated with greater likelihood of clinical benefit
Description: as §2

advanced solid cancers [9] = assay: Clinical benefit (RECIST 1.1) versus AUC/Cmax, Compound A in combination with atezolizumab; details: combination with atezolizumab
Description: as §2

[10] = as above; details: human, plasma, combination with anti-PD-L1 mAb (atezolizumab)
Description: as §2

[11] = IP-10 induction, >5-fold increase (n = 17)
[12] = No IP-10 induction, <5-fold increase (n = 19)

SMILES: CCOCc1nc2c(N)nc3ccccc3c2n1CC(C)(C)O [Compound A, 1-[4-amino-2-(ethoxymethyl)imidazo[4,5-c]quinolin-1-yl]-2-methylpropan-2-ol]
- dose dependence of toxicity ([1]; 0.30-0.90 mg/m^2): no apparent dose-dependent increase in toxicity
- Grade 1 AE, subjects (%) [1, 11]: 4 (24%)
- Grade 2 AE, subjects (%) [1, 11]: 7 (41%)
- Grade 3 AE, subjects (%) [1, 11]: 2 (12%)
- No AE, subjects (%) [1, 11]: 4 (24%)
- Grade 1 AE, subjects (%) [1, 12]: 6 (32%)
- Grade 2 AE, subjects (%) [1, 12]: 5 (26%)
- Grade 3 AE, subjects (%) [1, 12]: 1 (5%)
- No AE, subjects (%) [1, 12]: 7 (37%)
- Grade 4 or 5 adverse events ([1]; monotherapy, 36 subjects): no Grade 4 or 5 adverse events
- overall tolerability ([1]; monotherapy, 36 subjects): well-tolerated
- subjects without any drug-related AE ([1]; monotherapy, of 36 subjects): 31%
- subjects without any drug-related AE, number ([1]; monotherapy, of 36 subjects): 11
- patients with clinical benefit (advanced solid cancers [2]; high AUC group (above 2.19 ng/mL*Day), 15 patients): 47%
- patients with clinical benefit (advanced solid cancers [2]; high Cmax group (above 7.65 ng/mL), 16 patients): 44%
- patients with clinical benefit (advanced solid cancers [2]; low AUC group (below 2.19 ng/mL*Day), 11 patients): 27%
- patients with clinical benefit (advanced solid cancers [2]; low Cmax group (below 7.65 ng/mL), 10 patients): 30%
- Cmax ([3]; in vivo, intravenous): ≥ 7.65 ng/mL
- Cmax ([3]; plasma): 7.6 ng/mL
- effect on blood IFN-γ levels (IFN-γ): significantly increased
- Compound A free base exposure versus dose ([4]; five escalating dosages 0.30-0.90 mg/m^2 intravenously): dose-dependent increase
- half-life ([4]; human, plasma, iv): ~4 h
- mean IP-10 induction level from baseline (IP-10; high AUC group (AUC above 2.09 ng/mL*Day)): 27.2 fold
- mean IP-10 induction level from baseline (IP-10; high Cmax group (Cmax above 9.4 ng/mL)): 31.9 fold
- mean IP-10 induction level from baseline (IP-10; low AUC group (AUC below 2.09 ng/mL*Day)): 3.68 fold
- mean IP-10 induction level from baseline (IP-10; low Cmax group (Cmax below 9.4 ng/mL)): 5.09 fold
- effect on blood IP-10 levels (IP-10; monotherapy, FIG. 2A): significantly increased
- Cmax [5]: ≥ 9.4 ng/mL
- patients with clinical benefit (irPR or irSD>18 weeks) ([6]; high AUC group (above 2.09 ng/mL*Day)): 7 patients
- patients with clinical benefit (irPR or irSD>18 weeks) ([6]; high Cmax group (above 9.4 ng/mL)): 7 patients
- partial response [PR], number of subjects ([6]; irRECIST, best response): 2
- stable disease [SD], number of subjects ([6]; irRECIST, best response): 18
- disease control rate ([6]; irRECIST, partial response + stable disease): 63%
- patients with clinical benefit (irPR or irSD>18 weeks) ([6]; low AUC group (below 2.09 ng/mL*Day)): two
- patients with clinical benefit (irPR or irSD>18 weeks) ([6]; low Cmax group (below 9.4 ng/mL)): two
- progressive disease (PD) as best response ([6]; monotherapy): 38%
- progressive disease (PD) as best response, number ([6]; monotherapy): 12 subjects
- subjects with prolonged disease control (study duration >18 weeks) ([6]; monotherapy): 22%
- subjects with prolonged disease control (study duration >18 weeks), number ([6]; monotherapy): 7 subjects
- longest study duration ([6]; one subject on monotherapy): 68 weeks
- patients with clinical benefit (advanced solid cancers [7]; high AUC group (above 3.42 ng/mL*Day), 14 patients): 50%
- patients with clinical benefit (advanced solid cancers [7]; high Cmax group (above 8.38 ng/mL), 15 patients): 47%
- patients with clinical benefit (advanced solid cancers [7]; low AUC group (below 3.42 ng/mL*Day), 18 patients): 11%
- patients with clinical benefit (advanced solid cancers [7]; low Cmax group (below 8.38 ng/mL), 17 patients): 12%
- Cmax [8]: ≥ 8.38 ng/mL
- patients with clinical benefit (advanced solid cancers [9]; high AUC group (above 2.14 ng/mL*Day), 10 patients): 50%
- patients with clinical benefit (advanced solid cancers [9]; high Cmax group (above 10.5 ng/mL), 10 patients): 40%
- patients with clinical benefit (advanced solid cancers [9]; low AUC group (below 2.14 ng/mL*Day), 15 patients): 20%
- patients with clinical benefit (advanced solid cancers [9]; low Cmax group (below 10.5 ng/mL), 15 patients): 27%
- Cmax ([10]; intravenous): ≥ 10.5 ng/mL
- Cmax [10]: 10.5 ng/mL
